Reference: ChEMBL document CHEMBL3872264, “Discovery of biphenyl imidazole derivatives as potent antifungal agents: Design, synthesis, and structure-activity relationship studies” (Bioorg Med Chem, 2017)
In brackets after ≈: the same amount, converted by molar mass.

Assays:
Candida albicans [1] = experiment: Anti-fungal activity against Candida albicans SC5314 by broth microdilution method; assay type: functional
Candida albicans [2] = experiment: Anti-fungal activity against Candida albicans CPCC 400523 by broth microdilution method; assay type: functional
Cryptococcus neoformans = experiment: Anti-fungal activity against Cryptococcus neoformans CGMCC 2.3161 by broth microdilution method; assay type: functional
Aspergillus fumigatus = experiment: Anti-fungal activity against Aspergillus fumigatus CGMCC 3.7795 by broth microdilution method; assay type: functional
Candida tropicalis = experiment: Anti-fungal activity against Candida tropicalis CGMCC 2.3739 by broth microdilution method; assay type: functional
Candida albicans [3] = experiment: Anti-fungal activity against fluconazole-resistant Candida albicans 100 by broth microdilution method; assay type: functional
Candida albicans [4] = experiment: Anti-fungal activity against fluconazole-resistant Candida albicans 103 by broth microdilution method; assay type: functional
[5] = target: T1, Lanosterol 14-alpha demethylase (Candida albicans (strain SC5314 / ATCC MYA-2876) (Yeast), UniProt P10613); experiment: Inhibition of Candida albicans SC5314 CYP51 assessed as ergosterol composition of total sterols at 8 ug/ml by GC-MS method (reference value: 89.4 %); parameters: scale not given: the % may be the effect or the level left; settings: at 8 µg/mL
T1 sequence (P10613 whole entry): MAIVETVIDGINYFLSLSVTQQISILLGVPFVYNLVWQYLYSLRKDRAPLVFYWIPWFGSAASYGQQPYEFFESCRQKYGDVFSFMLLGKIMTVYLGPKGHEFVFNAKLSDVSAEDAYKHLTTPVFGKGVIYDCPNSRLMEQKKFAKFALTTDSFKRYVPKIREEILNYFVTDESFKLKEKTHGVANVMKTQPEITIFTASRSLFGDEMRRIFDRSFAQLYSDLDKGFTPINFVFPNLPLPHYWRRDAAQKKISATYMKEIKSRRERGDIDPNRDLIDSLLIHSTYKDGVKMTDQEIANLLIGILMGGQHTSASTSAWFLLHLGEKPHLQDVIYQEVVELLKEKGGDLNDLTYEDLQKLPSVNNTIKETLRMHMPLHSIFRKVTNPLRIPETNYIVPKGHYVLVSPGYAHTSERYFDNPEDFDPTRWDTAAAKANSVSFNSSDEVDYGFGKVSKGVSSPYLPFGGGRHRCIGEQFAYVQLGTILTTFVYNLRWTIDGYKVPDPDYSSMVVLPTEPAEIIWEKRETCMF

[6] = target: T1, Lanosterol 14-alpha demethylase; experiment: Inhibition of Candida albicans SC5314 CYP51 assessed as obtusifoliol composition of total sterols at 8 ug/ml by GC-MS method relative to control; parameters: scale not given: the % may be the effect or the level left; settings: at 8 µg/mL
[7] = target: T1, Lanosterol 14-alpha demethylase; experiment: Inhibition of Candida albicans SC5314 CYP51 assessed as lanosterol composition of total sterols at 8 ug/ml by GC-MS method (reference value: 3.5 %); parameters: scale not given: the % may be the effect or the level left; settings: at 8 µg/mL
[8] = target: T1, Lanosterol 14-alpha demethylase; experiment: Inhibition of Candida albicans SC5314 CYP51 assessed as eburicol composition of total sterols at 8 ug/ml by GC-MS method relative to control; parameters: scale not given: the % may be the effect or the level left; settings: at 8 µg/mL
[9] = target: T1, Lanosterol 14-alpha demethylase; experiment: Inhibition of Candida albicans SC5314 CYP51 assessed as change in total sterol composition at 8 ug/ml by GC-MS method (reference value: 7.1 %); parameters: scale not given: the % may be the effect or the level left; settings: at 8 µg/mL

SMILES	MIC (Candida albicans [1])	MIC (Candida albicans [2])	MIC (Cryptococcus neoformans)	MIC (Aspergillus fumigatus)	MIC (Candida tropicalis)	MIC (Candida albicans [3])	MIC (Candida albicans [4])	Activity [5]	Activity [6]	Activity [7]	Activity [8]	Activity [9]
COC(=O)[C@H](Cn1ccnc1)NC(=O)c1ccc(-c2ccccc2)cc1	2 µg/mL (≈ 5.72 µM)	2 µg/mL (≈ 5.72 µM)	> 16 µg/mL	> 16 µg/mL	0.25 µg/mL (≈ 0.716 µM)							
CC(C)OC(=O)[C@H](Cn1ccnc1)NC(=O)c1ccc(-c2ccc(C(F)(F)F)cc2)cc1	> 16 µg/mL	> 16 µg/mL	> 16 µg/mL	> 16 µg/mL	2 µg/mL (≈ 4.49 µM)							
CC(C)OC(=O)[C@H](Cn1ccnc1)NC(=O)c1ccc(-c2cccc(F)c2)cc1	0.0625 µg/mL (≈ 0.158 µM)	0.25 µg/mL (≈ 0.632 µM)	16 µg/mL (≈ 40.5 µM)	> 16 µg/mL	0.0625 µg/mL (≈ 0.158 µM)							
CC(C)COC(=O)[C@H](Cn1cncn1)NC(=O)c1ccc(-c2ccccc2)cc1	1 µg/mL (≈ 2.55 µM)	8 µg/mL (≈ 20.4 µM)	16 µg/mL (≈ 40.8 µM)	> 16 µg/mL	4 µg/mL (≈ 10.2 µM)							
COC(=O)[C@H](Cn1ccnc1)NC(=O)c1ccc(-c2ccccc2F)cc1	16 µg/mL (≈ 43.6 µM)	16 µg/mL (≈ 43.6 µM)	2 µg/mL (≈ 5.44 µM)	> 16 µg/mL	4 µg/mL (≈ 10.9 µM)							
CC(C)OC(=O)[C@H](Cn1ccnc1)NC(=O)c1ccc(-c2ccc(Cl)cc2)cc1	0.25 µg/mL (≈ 0.607 µM)	1 µg/mL (≈ 2.43 µM)	16 µg/mL (≈ 38.8 µM)	> 16 µg/mL	0.25 µg/mL (≈ 0.607 µM)							
CC(C)COC(=O)[C@H](Cn1ccnc1)NC(=O)c1ccc(-c2ccccc2Cl)cc1	0.5 µg/mL (≈ 1.17 µM)	2 µg/mL (≈ 4.7 µM)	16 µg/mL (≈ 37.6 µM)	> 16 µg/mL	0.5 µg/mL (≈ 1.17 µM)							
CC(C)OC(=O)[C@H](Cn1ccnc1)NC(=O)c1ccc(-c2ccccc2Cl)cc1	0.25 µg/mL (≈ 0.607 µM)	1 µg/mL (≈ 2.43 µM)	16 µg/mL (≈ 38.8 µM)	> 16 µg/mL	0.5 µg/mL (≈ 1.21 µM)							
CCCOC(=O)[C@H](Cn1ccnc1)NC(=O)c1ccc(-c2ccccc2F)cc1	0.125 µg/mL (≈ 0.316 µM)	0.25 µg/mL (≈ 0.632 µM)	0.5 µg/mL (≈ 1.26 µM)	> 16 µg/mL	0.0625 µg/mL (≈ 0.158 µM)							
CC(C)COC(=O)[C@H](Cn1ccnc1)NC(=O)c1ccc(-c2ccccc2)cc1	0.0312 µg/mL (≈ 0.0798 µM)	0.25 µg/mL (≈ 0.639 µM)	1 µg/mL (≈ 2.55 µM)	> 16 µg/mL	0.0312 µg/mL (≈ 0.0798 µM)							
CC(C)OC(=O)[C@H](Cn1ccnc1)NC(=O)c1ccc(-c2cccc(C#N)c2)cc1	> 16 µg/mL	> 16 µg/mL	> 16 µg/mL	> 16 µg/mL	8 µg/mL (≈ 19.9 µM)							
Cc1ccccc1-c1ccc(C(=O)N[C@@H](Cn2ccnc2)C(=O)OC(C)C)cc1	0.5 µg/mL (≈ 1.28 µM)	2 µg/mL (≈ 5.11 µM)	16 µg/mL (≈ 40.9 µM)	> 16 µg/mL	2 µg/mL (≈ 5.11 µM)							
CC(C)OC(=O)[C@H](Cn1ccnc1)NC(=O)c1ccc(-c2ccc(F)c(F)c2)cc1	> 16 µg/mL	> 16 µg/mL	> 16 µg/mL	> 16 µg/mL	8 µg/mL (≈ 19.4 µM)							
CCOC(=O)[C@H](Cn1ccnc1)NC(=O)c1ccc(-c2ccccc2F)cc1	0.25 µg/mL (≈ 0.655 µM)	1 µg/mL (≈ 2.62 µM)	1 µg/mL (≈ 2.62 µM)	> 16 µg/mL	0.125 µg/mL (≈ 0.328 µM)							
CC(C)NC(=O)[C@H](Cn1ccnc1)NC(=O)c1ccc(-c2ccccc2)cc1	> 16 µg/mL	> 16 µg/mL	> 16 µg/mL	> 16 µg/mL	> 16 µg/mL							
CC(C)CNC(=O)[C@H](Cn1ccnc1)NC(=O)c1ccc(-c2ccccc2)cc1	> 16 µg/mL	> 16 µg/mL	> 16 µg/mL	> 16 µg/mL	> 16 µg/mL							
CC(C)OC(=O)[C@H](Cn1ccnc1)NC(=O)c1ccc(-c2ccccc2F)cc1	0.0625 µg/mL (≈ 0.158 µM)	0.25 µg/mL (≈ 0.632 µM)	1 µg/mL (≈ 2.53 µM)	> 16 µg/mL	0.0625 µg/mL (≈ 0.158 µM)	8 µg/mL (≈ 20.2 µM)	4 µg/mL (≈ 10.1 µM)					
Cc1ccccc1-c1ccc(C(=O)N[C@@H](Cn2ccnc2)C(=O)OCC(C)C)cc1	> 16 µg/mL	> 16 µg/mL	> 16 µg/mL	> 16 µg/mL	4 µg/mL (≈ 9.86 µM)							
CC(C)OC(=O)[C@H](Cn1ccnc1)NC(=O)c1ccc(-c2ccc(F)cc2F)cc1	1 µg/mL (≈ 2.42 µM)	2 µg/mL (≈ 4.84 µM)	8 µg/mL (≈ 19.4 µM)	> 16 µg/mL	0.5 µg/mL (≈ 1.21 µM)							
CC(C)OC(=O)[C@H](Cn1ccnc1)NC(=O)c1ccc(-c2cc(F)ccc2F)cc1	0.25 µg/mL (≈ 0.605 µM)	1 µg/mL (≈ 2.42 µM)	16 µg/mL (≈ 38.7 µM)	> 16 µg/mL	0.0625 µg/mL (≈ 0.151 µM)							
Cc1ccc(-c2ccc(C(=O)N[C@@H](Cn3ccnc3)C(=O)OC(C)C)cc2)cc1	0.0625 µg/mL (≈ 0.16 µM)	0.5 µg/mL (≈ 1.28 µM)	4 µg/mL (≈ 10.2 µM)	> 16 µg/mL	0.0625 µg/mL (≈ 0.16 µM)							
CC(C)OC(=O)[C@H](Cn1cncn1)NC(=O)c1ccc(-c2ccccc2)cc1	0.25 µg/mL (≈ 0.661 µM)	4 µg/mL (≈ 10.6 µM)	16 µg/mL (≈ 42.3 µM)	> 16 µg/mL	2 µg/mL (≈ 5.28 µM)							
CC(C)OC(=O)[C@H](Cn1ccnc1)NC(=O)c1ccc(-c2ccc(OC(F)(F)F)cc2)cc1	0.125 µg/mL (≈ 0.271 µM)	0.125 µg/mL (≈ 0.271 µM)	16 µg/mL (≈ 34.7 µM)	> 16 µg/mL	0.5 µg/mL (≈ 1.08 µM)							
CC(C)OC(=O)[C@H](Cn1ccnc1)NC(=O)c1ccc(-c2ccccc2)cc1	0.0312 µg/mL (≈ 0.0828 µM)	0.25 µg/mL (≈ 0.662 µM)	2 µg/mL (≈ 5.3 µM)	> 16 µg/mL	0.0625 µg/mL (≈ 0.166 µM)							
CC(C)OC(=O)[C@H](Cn1ccnc1)NC(=O)c1ccc(-c2ccc(F)cc2)cc1	1 µg/mL (≈ 2.53 µM)	8 µg/mL (≈ 20.2 µM)	> 16 µg/mL	> 16 µg/mL	0.5 µg/mL (≈ 1.26 µM)							
CC(C)COC(=O)[C@H](Cn1ccnc1)NC(=O)c1ccc(-c2ccccc2F)cc1	0.0312 µg/mL (≈ 0.0763 µM)	0.125 µg/mL (≈ 0.305 µM)	0.5 µg/mL (≈ 1.22 µM)	> 16 µg/mL	0.0312 µg/mL (≈ 0.0763 µM)	2 µg/mL (≈ 4.88 µM)	4 µg/mL (≈ 9.77 µM)	2.5%	6.6%	19.6%	65.1%	6.2%
OC(Cn1cncn1)(Cn1cncn1)c1ccc(F)cc1F [FLUCONAZOLE]	0.5 µg/mL (≈ 1.63 µM)	1 µg/mL (≈ 3.27 µM)	4 µg/mL (≈ 13.1 µM)	> 16 µg/mL	1 µg/mL (≈ 3.27 µM)	> 64 µg/mL	> 64 µg/mL	2%	6.8%	18.2%	68.1%	4.9%
CCC(C)n1ncn(-c2ccc(N3CCN(c4ccc(OCC5COC(Cn6cncn6)(c6ccc(Cl)cc6Cl)O5)cc4)CC3)cc2)c1=O (stereo unspecified) [ITRACONAZOLE]	0.0625 µg/mL (≈ 0.0886 µM)	0.25 µg/mL (≈ 0.354 µM)	1 µg/mL (≈ 1.42 µM)	4 µg/mL (≈ 5.67 µM)	0.5 µg/mL (≈ 0.709 µM)							
